In US20040220188A1, “Alkylidene pyrazolidinedione derivatives” (priority 2001, published 2004):

Key:
PTP1B = target: T1, PTP1B (Homo sapiens, UniProt P18031); test: PTP Enzyme Assay (DiFMUP substrate), PTP1B; assay type: biochemical; details: catalytic core of human recombinant PTP, DiFMUP at Km; read-out: inhibition (IC50) with regard to PTP1B
T1 construct: using the catalytic core of a human recombinant PTP, as an enzyme; made in house
T1 sequence (P18031 3-277 limits assumed): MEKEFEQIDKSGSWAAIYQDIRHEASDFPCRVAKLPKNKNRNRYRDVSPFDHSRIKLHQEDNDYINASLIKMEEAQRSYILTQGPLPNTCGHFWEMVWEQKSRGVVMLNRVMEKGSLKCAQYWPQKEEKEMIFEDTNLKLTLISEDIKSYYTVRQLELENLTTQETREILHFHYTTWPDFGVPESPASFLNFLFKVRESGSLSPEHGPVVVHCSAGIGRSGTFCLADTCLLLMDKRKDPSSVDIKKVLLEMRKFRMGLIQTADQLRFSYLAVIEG
Excerpt: (§1) (1) The PTP Enzyme Assay (In Vitro Assay)
(§2) The PTP Enzyme Assay aims at determining the extent of inhibition of the examined PTP (e.g. PTP1B, TC-PTP, PTP-β, DEP-1, LAR, SHP-1, SHP-2, GLEPP-1, PTP-κ, PTP-μ, VHR, hVH5) in the presence of a test compound. The inhibition is illustrated by IC50 values which denote the concentration necessary to achieve an inhibition of 50% of the given PTP.
(§3) The cloning and expression of the catalytic domain of PTPs (e.g. PTP1B, TC-PTP, PTP-β, DEP-1, LAR, SHP-1, SHP-2, GLEPP-1, PTP-κ, PTP-μ, VHR, hVH5) may be performed as described in J. Biol. Chem. 2000, 275(13), pp 9792-9796.
(§4) Assays were performed in a 96 well plate format, using the catalytic core of a human recombinant PTP, as an enzyme and 6,8-DiFluoro-4-MethylUmbelliferyl Phosphate (DiFMUP, Molecular Probes, D-6567) as a substrate at the Km value which was determined for each enzyme. Compounds to be tested were dissolved in 100% DMSO at a concentration of 2 mM. […] The reaction ran for 30 minutes at room temperature before reading the fluorescence intensity on a Perkin-Elmer Victor 2 spectrofluorimeter (excitation at 355 nm, emission at 460 nm, for 0.1 s). The percentage of inhibition relative to the fluorescence observed in the presence of solvent (5% DMSO) alone was determined. The IC50 values for inhibition were determined in triplicates on at least 3 separate occasions.

GLEPP-1 = target: T2, GLEPP-1 (Homo sapiens, UniProt Q16827); test: PTP Enzyme Assay (DiFMUP substrate), GLEPP-1; assay type: biochemical; details: catalytic core of human recombinant PTP, DiFMUP at Km; read-out: inhibition (IC50) with regard to GLEPP-1
T2 construct: using the catalytic core of a human recombinant PTP, as an enzyme; made in house
T2 sequence (Q16827 938-1195 limits assumed): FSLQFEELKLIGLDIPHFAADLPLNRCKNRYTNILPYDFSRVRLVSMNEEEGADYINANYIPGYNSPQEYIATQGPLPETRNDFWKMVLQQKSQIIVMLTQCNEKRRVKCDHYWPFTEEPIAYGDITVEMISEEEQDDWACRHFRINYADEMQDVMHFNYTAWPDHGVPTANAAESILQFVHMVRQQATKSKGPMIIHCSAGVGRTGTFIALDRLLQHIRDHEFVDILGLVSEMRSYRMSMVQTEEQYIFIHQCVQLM
Excerpt: as §1, §2, §3, §4

Row | IC50 (PTP1B) [nM] | IC50 (GLEPP-1) [nM] | Structure (SMILES)
1 | 40 | ~130 | O=C1NN(c2ccc(I)cc2)C(=O)C1=Cc1ccc(Br)o1 [Compound 25, 4-(5-Bromo-furan-2-ylmethylene)-1-(4-iodo-phenyl)-pyrazolidine-3,5-dione]
2 | 580 | – | O=C1NN(c2ccc(I)cc2)C(=O)C1=Cc1cc(Br)c(O)c2ncccc12 [Compound 35]
3 | – | 47 | O=C1NN(c2ccc(I)cc2)C(=O)C1=Cc1ccc([N+](=O)[O-])o1 [Compound 45, 1-(4-Iodo-phenyl)-4-(5-nitro-furan-2-ylmethylene)-pyrazolidine-3,5-dione]
